Patent US5783599A, “Methods of treating cancer and viral infections with 5-iodo-6-amino-and 5-iodo-6-nitroso-1 2-benzopyrones” (priority 1996, dated 1998)
Entries after “also recorded” stand apart in the source; their conditions may differ.

Legend:
[1] = test system: HEp-2 cells; experiment: DNA synthesis ([3H]deoxyadenosine incorporation) in HEp-2 cells; assay type: cell-based; settings: Homo sapiens, 5-I-6-ABP 0.05 mM, 72 h, N=5, read-out: % Inhibition of DNA synthesis
From the text: (§1) In this study, the following cell lines were used. Cell line CG I, a non-tumorigenic hybrid of HeLa cells with normal human fibroblasts, and its is tumorigenic revertant counterpart, CG1 III, as described in Science, 215:252 (1982). These cells were obtained from UC Irvine. […] HEp-2 human epidermoid carcinoma cells were provided by Dr. L. Aurelian (University of Maryland). E-Ras cells were-obtained from University of Cincinnati and represent an endothelial cell line transfected with pSV2neo plasmid as described in Proc. Natl. Acad. Sci., 76:1373 (1979). This cell line contains several copies of the activated human Ha-ras oncogene.
(§2) Cells were seeded to 2 cm^2 wells of Falcon tissue culture plates at a density of 6000±650 cells per well. Inhibitors were added to the seeding suspensions from stock solutions of 100 mM 6-ABP in water or 50 mM 5-1-6-ABP in dimethylsulfoxide (DMSO). […] Growth media were Dulbeccos MEM (lines #1 and 2), and Dulbeccols Modified Eagle's Medium, containing 10% fetal bovine serum and penicillin (100 μg/ml) plus streptomycin (100 μg/ml). […] Cells were then lysed in 500 μl of 0.06M NaOH and the acid precipitable radioactivity was determined.

[2] = test system: virus; experiment: Antiviral effect in in vitro experiments at 0.35 mM; assay type: cell-based; settings: 100 mg/kg corresponding to 0.35 mM
[3] = test system: AA-2 or MT-2 cells; experiment: Cell count and viability of AA-2 and MT-2 cells; assay type: cell-based, human
Protocol: The effects of 5-I-6-ABP treatment of AA-2 and MT-2 cells was directly analyzed by cell count and viability tests including cloning efficiency and trypan blue uptake. The AA2 or MT-2 cell culture having initial cell count per well 0.5×10^5 was submitted to treatment with 3 mM of 6-ABP and or with 0.1 mM of 5-I-6-ABP and compared to untreated cell culture. The cells were counted 4 days after the treatment with 5-I-6-ABP and 6-ABP.

[4] = test system: HIV; experiment: HIV proliferation in human lymphoblasts; assay type: cell-based
From the text: The HIV isolates used in these experiments are isolated from the blood of infected patients. After isolation, HIV infection is established in CEM cells, and these infected cells are used to produce a stock of HIV virus that is titered to measure the concentration of tissue culture infective doses (TCID).
The cells are placed in culture in medium containing IL-2, but in the absence of additional 5-I-6-ABP, and monitored at 6 days and 12 days for the production of HIV-p24 core antigen, or for measurements of particulate reverse transcriptase.
HIV p24 antigen is measured by ELISA, with a cutoff of 5 pgm/ml. Particulate reverse transcriptase is measured by centrifuging down free virus from tissue culture fluids, lysing HIV in a buffer containing detergent, magnesium, H3-labelled dTTP and poly rA.oligo dT primer, incubating for 1 hour, and measuring precipitable radioactivity, and is expressed as cpm per volume of HIV-containing medium.

[5] = test system: HIV; experiment: Cytopathogenic effect of HIV on AA-2 cells; assay type: cell-based
[6] = test system: 14C cells; experiment: DNA synthesis ([3H]deoxyadenosine incorporation) in 14C cells; assay type: cell-based; settings: Rattus norvegicus, 5-I-6-ABP 0.05 mM, 72 h, N=5, read-out: % Inhibition of DNA synthesis
From the text: as §1, §2

[7] = molecular target: ADPRT (Bos taurus, UniProt P18493); experiment: Inhibition of ADPRT / binding to ADPRT (I50, Ki); assay type: biochemical
From the text: Their biological action spectrum is nearly the same as that of 6-ABP, except that their potency is about 10-50 times greater. Such potency is particularly well documented in case of 5-I-6-ABP against malignant cell proliferation in cell cultures. […] This effectivity is 10-20 times higher than 6-ABP.
The 6-amino group of 5-I-6-ABP is rapidly oxidized intracellularly to 5-I-6-NOBP which, by binding to the Zn^2+ -finger domain of ADPRT, destabilizes the tightly chelated Zn^2+ by the oxidation of the thiol groups in the Zn^2+ finger polypeptide, thus ejecting Zn^2+. In this way, 5-I-6-ABP effectively inactivates the ADPR-forming activity of this protein and converts it to a DNA binding protein that reacts with "internal domains" of certain double stranded DNA (Biochemistry, 28:5670 (1989); Biochem. Biophys. Res. Commun., 167:842 (1990)). These DNA domains include abnormally replicating DNA structures in tumorigenic or proliferative cells and in viral DNAs, probably at the integration sites.

[8] = test system: HSV; experiment: HSV replication in infected cell culture; assay type: cell-based
Protocol: Herpes simplex virus (HSV) type 1 and 2 (F and G strains, respectively) were grown in HEp-2 cells and titered by plaque assay under liquid overlay as described in Proc. Natl. Acad. Sci., 83:2787 (1986). Virus titers for CMV are expressed as the highest dilution that causes 50% cytopathic effect (TCID50). Virus titers for HSV-1 and HSV-2 are expressed as […] per ml. HIV titers are expressed as syncytial forming units (SFU per ml), assayed on MT2 cells. Vero, HEp-2 or MRC-5 cells are exposed to various concentrations from 0.1 to 10 mM of 5-I-6-ABP in various time intervals before infecting them with HSV-1 or HSV-2 (5-10 PFU/cell). Virus titers are determined 24 hours later.

[9] = Stability in solution; assay type: physicochemical
From the text: 5-I-6-ABP, is a reasonably soluble molecule. It can form approximately 0. […] Such solution would be reasonably stable for use as an intravenous infusion formulation. The parenteral route of administration seems to be the most likely effective mode of administration against cancer or HIV infections at any stage of the disease. […] 5-I-6-ABP is most probably also effective for treatment of AIDS related Kaposi's sarcoma of inner organs. Properly formulated, it will also effect skin disorders. The color of the compound in the solid state depends on particle size. Large crystals are a very deep brown, small crystals, a medium brown, and when pulverized, the material in all cases is orange-colored.

[10] = test system: HIV; experiment: Cytopathogenic effect of HIV on MT-2 cells; assay type: cell-based
[11] = Metabolic conversion in liver / intracellular oxidation and cell penetration
[12] = test system: CMV; experiment: CMV replication in infected cell culture; assay type: cell-based
[13] = test system: other enzymes; experiment: Specificity towards other enzymes
[14] = test system: CG1 I cells; experiment: DNA synthesis ([3H]deoxyadenosine incorporation) in CG1 I cells; assay type: cell-based; settings: Homo sapiens, 5-I-6-ABP 0.05 mM, 72 h, N=5
From the text: as §1, §2

[15] = Toxicity after intraperitoneal administration; assay type: in vivo, rat
Protocol: Toxicological tests administering 5-I-6-ABP to mice were performed under the following conditions.
[…] […] […] In in vitro experiments, it was shown that at the concentration 100 mg/kg corresponding to 0.35 mM, the antiviral effect is maximal.

ADPRT, sequence (P18493 whole entry): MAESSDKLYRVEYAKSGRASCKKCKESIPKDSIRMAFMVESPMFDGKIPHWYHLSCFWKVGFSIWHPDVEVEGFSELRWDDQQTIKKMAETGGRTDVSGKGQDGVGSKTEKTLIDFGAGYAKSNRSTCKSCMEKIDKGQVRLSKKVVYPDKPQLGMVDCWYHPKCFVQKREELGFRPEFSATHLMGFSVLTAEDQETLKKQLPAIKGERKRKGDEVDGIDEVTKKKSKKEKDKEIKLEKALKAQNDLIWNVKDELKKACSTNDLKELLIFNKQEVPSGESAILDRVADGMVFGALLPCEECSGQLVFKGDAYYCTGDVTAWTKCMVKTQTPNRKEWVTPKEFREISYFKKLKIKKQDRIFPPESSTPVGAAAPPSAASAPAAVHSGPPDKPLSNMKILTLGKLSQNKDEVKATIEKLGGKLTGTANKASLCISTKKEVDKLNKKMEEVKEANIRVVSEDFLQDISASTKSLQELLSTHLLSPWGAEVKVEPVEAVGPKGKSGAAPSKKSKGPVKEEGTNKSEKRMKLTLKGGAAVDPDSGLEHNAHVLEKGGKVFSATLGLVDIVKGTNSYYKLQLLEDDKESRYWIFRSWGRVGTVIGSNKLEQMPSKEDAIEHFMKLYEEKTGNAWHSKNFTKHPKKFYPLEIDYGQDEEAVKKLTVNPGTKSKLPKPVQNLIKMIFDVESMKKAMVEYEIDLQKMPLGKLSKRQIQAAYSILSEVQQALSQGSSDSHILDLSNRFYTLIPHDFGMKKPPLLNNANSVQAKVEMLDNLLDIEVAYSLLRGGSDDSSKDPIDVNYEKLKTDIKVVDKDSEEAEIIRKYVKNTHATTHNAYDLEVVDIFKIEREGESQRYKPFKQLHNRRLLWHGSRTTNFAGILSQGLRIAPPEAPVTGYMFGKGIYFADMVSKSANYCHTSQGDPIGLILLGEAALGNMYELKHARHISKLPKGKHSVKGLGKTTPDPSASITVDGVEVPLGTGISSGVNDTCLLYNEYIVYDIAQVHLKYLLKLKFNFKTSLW

## Nc1ccc2oc(=O)ccc2c1I [5-I-6-ABP, 5-iodo-6-amino-1,2-benzopyrone]
[1]
  percent change in DNA synthesis vs control at 50 µM: -52.4%
[2]
  antiviral effect: maximal
[3]
  cytotoxicity: does not involve cytotoxicity
[3]; 3 mM 6-ABP, 0.1 mM 5-I-6-ABP, 4 days
  effect on cell proliferation: inhibitory effect on cell proliferation
[4]
  inhibition of HIV, duration: temporary and reversible
[5]
  cytopathogenic effect of HIV, effectiveness relative to 6-ABP: nearly as effective
[6]
  percent change in DNA synthesis versus control at 50 µM: -69.2%
[7]
  IC50: 19 µM
  Ki: 2 µM
  inhibition of / binding to ADPRT: potent inhibitor of ADPRT; also recorded: much tighter binding
[7]; vs non-iodinated 6-ABP
  times more potent than 6-ABP (on a concentration basis): about 10 times
[8]
  HSV inhibition: specific, potent and non-toxic inhibitor
[8]; Vero, HEp-2 or MRC-5 cells, 0.1 to 10 mM
  effect of cell type on inhibitory effect: not affected by cell type
[9]; 25° C.
  stability in water, ethanol and DMSO: stable in all of these solvents
[9]; about 0.4 mM in water, pH 7.2-7.9, room temperature
  stability of aqueous solution: stable for months at room temperature
[9]; boiling water
  stability with respect to boiling water: stable with respect to boiling water
[9]; water, kept in the dark, months at room temperature, read-out: decomposition in aqueous solution
  degraded: < 0.1%
[10]
  cytopathogenic effect of HIV, effectiveness relative to 6-ABP: nearly as effective
[11]; most mammalian cells, pH 7.2-7.4
  cell penetration: to a limited degree
[11]; to 5-I-6-NOBP
  intracellular oxidation at 6-amino position: rapid oxidation
[11]; to 5-I-6-nitroBP, per os
  metabolic conversion in the liver: rapid conversion in the liver
[12]
  CMV inhibition: specific, potent and non-toxic inhibitor; also recorded: effectively inhibits CMV growth
[13]
  activation or inhibition of other enzymes: no other enzymes are activated or inhibited
[14]
  inhibition at 50 µM: -7.6%
[15]; chronic administration, 100 and 500 mg/kg, several weeks
  toxic effects, chronic: did not show any toxic effects
[15]; rats, i.p., 100 and 59 mg/kg in DMSO once a day, four days
  toxic effects, subacute: no apparent toxic effects
